Test system: 217524-143-R1-J4-PDC spheroids with HUVEC/MSC, viability
Experiment: Anticancer human tumor 217524-143-R1-J4-PDC patient-derived pancreatic carcinoma cell line growth inhibition [CLK]
Conditions: for IC50: curve of first compound; for viability, T/C: stronger effect = lower value
Method in brief: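 Patient-derived tumor cells grown as complex spheroids with HUVEC endothelial cells and mesenchymal stem cells, treated with drug combinations. Concentrations descend in half-log steps from near clinical Cmax, or from 10 microM if Cmax unknown.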

[1] = second compound 0.0316 µM, first compound 0.0316 µM
[2] = second compound 0.0316 µM, first compound 0.1 µM
[3] = second compound 0.0316 µM, first compound 0.316 µM
[4] = second compound 0.0316 µM, first compound 1 µM
[5] = second compound 0.0316 µM, first compound 3.16 µM
[6] = second compound 0.0316 µM, first compound 10 µM
[7] = second compound 0.1 µM, first compound 0.0316 µM
[8] = second compound 0.1 µM, first compound 0.1 µM
[9] = second compound 0.1 µM, first compound 0.316 µM
[10] = second compound 0.1 µM, first compound 1 µM
[11] = second compound 0.1 µM, first compound 3.16 µM
[12] = second compound 0.1 µM, first compound 10 µM
[13] = second compound 0.316 µM, first compound 0.0316 µM
[14] = second compound 0.316 µM, first compound 0.1 µM
[15] = second compound 0.316 µM, first compound 0.316 µM
[16] = second compound 0.316 µM, first compound 1 µM
[17] = second compound 0.316 µM, first compound 3.16 µM
[18] = second compound 0.316 µM, first compound 10 µM
[19] = second compound 1 µM, first compound 0.0316 µM
[20] = second compound 1 µM, first compound 0.1 µM
[21] = second compound 1 µM, first compound 0.316 µM
[22] = second compound 1 µM, first compound 1 µM
[23] = second compound 1 µM, first compound 3.16 µM
[24] = second compound 1 µM, first compound 10 µM
[25] = second compound 3.16 µM, first compound 0.0316 µM
[26] = second compound 3.16 µM, first compound 0.1 µM
[27] = second compound 3.16 µM, first compound 0.316 µM
[28] = second compound 3.16 µM, first compound 1 µM
[29] = second compound 3.16 µM, first compound 3.16 µM
[30] = second compound 3.16 µM, first compound 10 µM
[31] = second compound 10 µM, first compound 0.0316 µM
[32] = second compound 10 µM, first compound 0.1 µM
[33] = second compound 10 µM, first compound 0.316 µM
[34] = second compound 10 µM, first compound 1 µM
[35] = second compound 10 µM, first compound 3.16 µM
[36] = second compound 10 µM, first compound 10 µM
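Further: spheroids exposed to agents for seven days before reading.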
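Wherever viability, T/C is given: 100% = DMSO vehicle control viability.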

C#Cc1c(F)ccc2cc(O)cc(-c3ncc4c(N5CC6CCC(C5)N6)nc(OCC56CCCN5CC(F)C6)nc4c3F)c12 (centres undefined) + CNC(=O)c1ccc(Nc2nc(OC3CCCC3)c3c(-c4ccc5nc(C)oc5c4)c[nH]c3n2)c(OC)c1
IC50 (second compound 0.0316 µM): > 10000 nM
IC50 (second compound 0.1 µM): < 31.6 nM
IC50 (second compound 0.316 µM): < 31.6 nM
IC50 (second compound 1 µM): < 31.6 nM
IC50 (second compound 3.16 µM): < 31.6 nM
IC50 (second compound 10 µM): < 31.6 nM
viability, T/C [1]: 84.3%
viability, T/C [2]: 98.2%
viability, T/C [3]: 90.8%
viability, T/C [4]: 101%
viability, T/C [5]: 89.4%
viability, T/C [6]: 69%
viability, T/C [7]: 47.5%
viability, T/C [8]: 39.2%
viability, T/C [9]: 53.6%
viability, T/C [10]: 42.4%
viability, T/C [11]: 44.5%
viability, T/C [12]: 30.8%
viability, T/C [13]: 38.5%
viability, T/C [14]: 50.3%
viability, T/C [15]: 38.2%
viability, T/C [16]: 40.9%
viability, T/C [17]: 38.7%
viability, T/C [18]: 24.3%
viability, T/C [19]: 33.1%
viability, T/C [20]: 30%
viability, T/C [21]: 26.1%
viability, T/C [22]: 35.5%
viability, T/C [23]: 24.5%
viability, T/C [24]: 18.9%
viability, T/C [25]: 29.1%
viability, T/C [26]: 29.5%
viability, T/C [27]: 32.6%
viability, T/C [28]: 26.7%
viability, T/C [29]: 26.2%
viability, T/C [30]: 19.4%
viability, T/C [31]: 26.3%
viability, T/C [32]: 24.2%
viability, T/C [33]: 27.8%
viability, T/C [34]: 23.4%
viability, T/C [35]: 24.9%
viability, T/C [36]: 19.7%

C=C(F)C(=O)N1CCN(c2nc(OCC3CCCN3C)nc3c2CCN(c2cccc4cccc(Cl)c24)C3)CC1CC#N (centres undefined) + CNC(=O)c1ccc(Nc2nc(OC3CCCC3)c3c(-c4ccc5nc(C)oc5c4)c[nH]c3n2)c(OC)c1
IC50 (second compound 0.0316 µM): 5260 nM
IC50 (second compound 0.1 µM): < 31.6 nM
IC50 (second compound 0.316 µM): < 31.6 nM
IC50 (second compound 1 µM): < 31.6 nM
IC50 (second compound 3.16 µM): < 31.6 nM
IC50 (second compound 10 µM): < 31.6 nM
viability, T/C [1]: 80.1%
viability, T/C [2]: 77.7%
viability, T/C [3]: 97.1%
viability, T/C [4]: 85.7%
viability, T/C [5]: 104%
viability, T/C [6]: 0.48%
viability, T/C [7]: 46.5%
viability, T/C [8]: 43%
viability, T/C [9]: 34.7%
viability, T/C [10]: 45.3%
viability, T/C [11]: 37.9%
viability, T/C [12]: 0.82%
viability, T/C [13]: 39.3%
viability, T/C [14]: 42.9%
viability, T/C [15]: 41.9%
viability, T/C [16]: 28.2%
viability, T/C [17]: 28.2%
viability, T/C [18]: 1.22%
viability, T/C [19]: 32.5%
viability, T/C [20]: 33.8%
viability, T/C [21]: 30.9%
viability, T/C [22]: 23.4%
viability, T/C [23]: 21.8%
viability, T/C [24]: 0.35%
viability, T/C [25]: 27.8%
viability, T/C [26]: 40.8%
viability, T/C [27]: 25.6%
viability, T/C [28]: 23.8%
viability, T/C [29]: 19.6%
viability, T/C [30]: 0.34%
viability, T/C [31]: 26.5%
viability, T/C [32]: 22.6%
viability, T/C [33]: 27.6%
viability, T/C [34]: 25.4%
viability, T/C [35]: 18.5%
viability, T/C [36]: 0.42%

Reference: PubChem BioAssay AID2060624 (Molecular Pharmacology Branch, DTP, NCI, 2025)
